Values of other authors as cited in paper PMC5040077 (The Korean Journal of Parasitology, 2016).

Experiments:
[1] = test system: Leishmania chagasi promastigotes
[2] = test system: Trypanosoma cruzi trypomastigotes
HL-60 = settings: cancer cell line HL-60
SF-295 = settings: cancer cell line SF-295
MDA-MB-435 = settings: cancer cell line MDA-MB-435
HCT-8 = settings: cancer cell line HCT-8

Row | Structure (SMILES) | biological activity against Leishmania chagasi promastigotes [1] | activity against Trypanosoma cruzi trypomastigotes [2] | cytotoxicity against HL-60 (HL-60) | cytotoxicity against SF-295 (SF-295) | cytotoxicity against MDA-MB-435 (MDA-MB-435) | cytotoxicity against HCT-8 (HCT-8)
1 | C[C@]12CC[C@H](O)C[C@@]1(O)CC[C@@H]1[C@@H]2CC[C@]2(C)[C@@H](c3ccc(=O)oc3)CC[C@]12O [compound 1, telocinobufagin] | biological activity | only hellebrigenin was active | low cytotoxicity | low cytotoxicity | low cytotoxicity | low cytotoxicity
2 | C[C@]12CC[C@H]3[C@@H](CC[C@]4(O)C[C@@H](O)CC[C@]34C=O)[C@@]1(O)CC[C@@H]2c1ccc(=O)oc1 [hellebrigenin, reference compound] | biological activity | active | – | – | – | –
